PubChem BioAssay AID488890 (Southern Research Specialized Biocontainment Screening …, 2010)
Inconclusive results are not listed. Calls of active or inactive are those of the source. No rule for the calls is given here.

system: Mycobacterium tuberculosis non-replicating, growth inhibition; assay: growth inhibition of non-replicating M. tuberculosis (AID 488890)

Question: For Cc1cccc2nc(CSc3nc4cc([N+](=O)[O-])ccc4s3)cn12, which IC50 is on record?
Answer: The IC50 was 18.1 µM (inactive).

Question: Which IC50 does the source give for CC(C)Cn1c(N)c(C(=O)COC(=O)c2cnc(Cl)c(Cl)c2)c(=O)n(C)c1=O here?
Answer: The IC50 was 12 µM (inactive).

Question: For N#CC(C(=O)Nc1ccccc1)=C1Nc2ccccc2N1, which IC50 is on record?
Answer: Its IC50 is 37.8 µM (inactive).

Question: Which IC50 does the source give for O=C(COc1ccc2ccccc2c1Br)N1CCCC1 here?
Answer: The IC50 was 0.56 µM.

Question: How did the IC50 turn out when COc1ccc(C(CCNCc2ccc(OC(C)C)cc2)C(C)C)cc1 (configuration not stated) was run?
Answer: Its IC50 is 10.2 µM (inactive).

Question: For O=c1ccn(-c2ccccc2)[nH]1, which IC50 is on record?
Answer: Its IC50 is 7.52 µM.

Question: For O=C(N/N=C1\CCCc2c1[nH]c1ccc(Cl)cc21)c1ccncc1, which IC50 is on record?
Answer: Its IC50 is 1.78 µM.

Question: With Cc1cc(Cl)ccc1OCCCC(=O)NO as the compound, how does the IC50 read?
Answer: The IC50 was 14.6 µM (inactive).

Question: Cc1c(Cl)cccc1NC(=O)C(=O)NNC(=O)c1ccccc1F was tested. Which IC50 did it give?
Answer: Its IC50 is 1.59 µM.

Question: With O=C(N/N=C/c1c(O)ccc2ccccc12)c1ccc(Br)o1 as the compound, how does the IC50 read?
Answer: The IC50 was less than 0.1 µM.

Question: With O=C(OCn1nnc2ccccc2c1=O)c1ccc(Br)o1 as the compound, how does the IC50 read?
Answer: The IC50 was 11.6 µM (inactive).

Question: With Cc1cc(C(=O)COc2cccc3cccnc23)c(C)n1C as the compound, how does the IC50 read?
Answer: The IC50 was 5.1 µM.

Question: CCCCCCCC(=O)N/N=C/c1ccc([N+](=O)[O-])o1 was tested. Which IC50 did it give?
Answer: The IC50 was 2.63 µM.

Question: With c1ccc(Nc2nc(Nc3ccccc3)nc(N3CCNCC3)n2)cc1 as the compound, how does the IC50 read?
Answer: The IC50 was 12 µM (inactive).

Question: For O=[N+]([O-])c1ccc(Nc2ccccc2O)c2nonc12, which IC50 is on record?
Answer: The IC50 was 5.94 µM.

Question: C/C(=C\C(=O)c1ccncc1)Nc1ccccc1O was tested. Which IC50 did it give?
Answer: The IC50 was 4.15 µM.

Question: With O=c1oc2ccccc2c(Nc2ccccc2O)c1[N+](=O)[O-] as the compound, how does the IC50 read?
Answer: Its IC50 is 8.58 µM.

Question: Which IC50 does the source give for CN(C)S(=O)(=O)c1ccc(C(=O)Oc2ccccc2)cc1 here?
Answer: The IC50 was 2.41 µM.

Question: With CC(/C=C/c1ccco1)=N\NC(=O)c1cccc(Cl)c1 as the compound, how does the IC50 read?
Answer: The IC50 was 4.86 µM.

Question: How did the IC50 turn out when O=C(COC(=O)c1ccc(Br)o1)Nc1ncc([N+](=O)[O-])s1 was run?
Answer: The IC50 was 14.4 µM (inactive).

Question: How did the IC50 turn out when O=C(NC(=S)N1CCc2ccccc21)c1ccccc1 was run?
Answer: The IC50 was 11.6 µM (inactive).

Question: For COc1cc(CNCCc2ccccc2)cc(Cl)c1OCc1ccccc1, which IC50 is on record?
Answer: Its IC50 is 7.43 µM.

Question: For Cn1nnnc1N=N/C(=N/Nc1ccccc1)c1ccccc1, which IC50 is on record?
Answer: The IC50 was 6.47 µM.

Question: For Cc1ccc(NCCC(=O)c2cccs2)cc1C, which IC50 is on record?
Answer: Its IC50 is 6.07 µM.

Question: For O=C(c1ccc([N+](=O)[O-])s1)N1CCN(c2cccc(Cl)c2)CC1, which IC50 is on record?
Answer: The IC50 was 0.38 µM.

Question: Which IC50 does the source give for COc1cc(N=c2ssnc2Cl)cc(OC)c1 here?
Answer: The IC50 was 19.3 µM (inactive).

Question: Which IC50 does the source give for Cc1[nH]n(-c2ccccc2)c(=O)c1C=Nc1cnc2ccccc2c1 here?
Answer: Its IC50 is 6.23 µM.

Question: With CCC1CCCCN1S(=O)(=O)c1ccc(C(=O)Nc2nnc(-c3cccs3)o2)cc1 (configuration not stated) as the compound, how does the IC50 read?
Answer: Its IC50 is 11 µM (inactive).

Question: For CC1=CC(=O)NP(=O)(Oc2ccc3ccccc3c2)N1 (configuration not stated), which IC50 is on record?
Answer: Its IC50 is 7.95 µM.

Question: How did the IC50 turn out when CS(=O)(=O)Cc1nc2ccccc2oc1=O was run?
Answer: The IC50 was 3.18 µM.

Question: With CCCNC(=O)COC(=O)c1cc2c(=O)n3ccccc3nc2s1 as the compound, how does the IC50 read?
Answer: Its IC50 is 23.6 µM (inactive).

Question: Which IC50 does the source give for COC(=O)COc1cccc(NC(=O)c2cccc(C)c2)c1 here?
Answer: The IC50 was 9.25 µM.

Question: Which IC50 does the source give for O=C(C/C=N\OCc1ccc([N+](=O)[O-])cc1)Nc1ccccc1 here?
Answer: Its IC50 is 4.57 µM.

Question: How did the IC50 turn out when O=C(OCC(=O)N1CCC(c2ccccc2)=N1)c1ccc([N+](=O)[O-])s1 was run?
Answer: The IC50 was 0.61 µM.

Question: For CCOC(=O)N1CCC(NS(=O)(=O)c2cc3c(cc2Cl)NC(=O)CO3)CC1, which IC50 is on record?
Answer: The IC50 was 4.67 µM.

Question: Which IC50 does the source give for Nc1ccc2c(c1)C(=O)C(=O)c1ccccc1-2 here?
Answer: Its IC50 is 2.47 µM.

Question: O=C(Oc1cccc2cccnc12)c1ccc2c(c1)OCCO2 was tested. Which IC50 did it give?
Answer: Its IC50 is 0.96 µM.

Question: For Cc1c(Cl)cccc1NC(=O)C1COc2ccccc2O1 (configuration not stated), which IC50 is on record?
Answer: Its IC50 is 12.1 µM (inactive).

Question: Which IC50 does the source give for O=C(C1CCN(C2CC(=O)N(Cc3ccccc3)C2=O)CC1)N1CCCCCC1 (configuration not stated) here?
Answer: The IC50 was 7.22 µM.

Question: Which IC50 does the source give for Cc1nonc1C(=O)N/N=C/c1ccc([N+](=O)[O-])o1 here?
Answer: The IC50 was 10.1 µM (inactive).

Question: Cc1ccc(OC(=O)CCS(=O)(=O)c2ccc(C)cc2)cc1 was tested. Which IC50 did it give?
Answer: Its IC50 is 11.8 µM (inactive).

Question: For O=c1[nH]c(O)c(/C=C2/C=CC(c3cc(Cl)ccc3Cl)=N2)c(=O)[nH]1, which IC50 is on record?
Answer: Its IC50 is 0.34 µM.

Question: Which IC50 does the source give for CCOc1ccc(NC(=O)CCNC(=O)c2ccc(Br)cc2)cc1 here?
Answer: The IC50 was 13.8 µM (inactive).

Question: Which IC50 does the source give for Cc1onc(-c2ccccc2)c1C(=O)Nc1nnc(COc2ccc(Cl)cc2)s1 here?
Answer: The IC50 was 8.2 µM.

Question: How did the IC50 turn out when Nc1ccc2c(c1)oc1ccccc12 was run?
Answer: The IC50 was 2.05 µM.

Question: C/C(=C\C(=O)c1ccc(Br)cc1)NNC(=O)c1ccccc1 was tested. Which IC50 did it give?
Answer: Its IC50 is 0.38 µM.

Question: Which IC50 does the source give for COc1ccccc1NC(=O)CCN1CCN(c2ccc(Cl)cc2)CC1 here?
Answer: The IC50 was 24.2 µM (inactive).

Question: Cn1[nH]c(-c2ccccc2)c(/C=N/O)c1=O was tested. Which IC50 did it give?
Answer: Its IC50 is 8.99 µM.

Question: How did the IC50 turn out when CC1CCN(C(=O)COC(=O)CCc2c[nH]c3ccccc23)CC1 was run?
Answer: Its IC50 is 12.8 µM (inactive).

Question: O=C1c2cccc3c([N+](=O)[O-])ccc(c23)C(=O)N1c1ccccn1 was tested. Which IC50 did it give?
Answer: The IC50 was 4.86 µM.

Question: How did the IC50 turn out when O=C(N/N=C/c1ccc[nH]1)c1ccc(Cl)cc1 was run?
Answer: The IC50 was 3.88 µM.

Question: How did the IC50 turn out when CCCOc1ccc(CCC(=O)N/N=C/c2ccc([N+](=O)[O-])o2)cc1 was run?
Answer: The IC50 was 4.22 µM.

Question: With CCOC(=O)CN1NC2(CCC(C)CC2)NC1=S (configuration not stated) as the compound, how does the IC50 read?
Answer: The IC50 was 15.2 µM (inactive).

Question: How did the IC50 turn out when O=C(CN1CCC(NC(=O)c2cccc(F)c2)CC1)Nc1ccc(Br)cc1 was run?
Answer: Its IC50 is 31.9 µM (inactive).

Question: COc1ccc(C(=O)Nc2ccccc2C(=O)N/N=C/c2ccccn2)cc1OC was tested. Which IC50 did it give?
Answer: The IC50 was 24.7 µM (inactive).

Question: How did the IC50 turn out when O=C(C/C=N\OCc1ccc([N+](=O)[O-])cc1)Nc1ccc(F)cc1F was run?
Answer: The IC50 was 9.1 µM.

Question: With O=C(O)COc1ccc2occ(C(=O)c3ccccc3)c2c1 as the compound, how does the IC50 read?
Answer: Its IC50 is 6.46 µM.
